Laboratory results as given in patent publication US20050282908A1, “Substituted aminopropoxyaryl derivatives useful as agonists for LXR” (SmithKline Beecham Corporation, priority 2000, published 2005).

Legend:
[1] = target: T1, human LXRβ ligand binding domain (Homo sapiens, UniProt P55055); assay: Assay for LXRβ Activity (HTRF, SRC-1 peptide recruitment); assay type: biochemical; settings: 1 μM; over a background reading of 10000 fluorescence units
T1 construct: made in house; host or cells: E. coli BL21 (DE3), vector pRSETa
T1 sequence (P55055 184-460 limits assumed): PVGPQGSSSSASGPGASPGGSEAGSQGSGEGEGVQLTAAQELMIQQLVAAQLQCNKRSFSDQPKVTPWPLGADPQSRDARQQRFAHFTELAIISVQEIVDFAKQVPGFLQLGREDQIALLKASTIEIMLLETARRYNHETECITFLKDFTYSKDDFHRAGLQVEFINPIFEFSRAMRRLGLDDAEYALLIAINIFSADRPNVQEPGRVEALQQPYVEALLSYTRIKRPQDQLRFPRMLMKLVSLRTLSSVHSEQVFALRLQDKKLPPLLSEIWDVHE
T1 sequence (Q15788 676-700 partner limits assumed): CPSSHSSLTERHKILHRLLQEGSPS
Method: A modified polyhistidine tag (MKKGHHHHHHG) (SEQ ID No. 1) was fused in frame to the human LXRβ ligand binding domain (amino acids 185-461 of Genbank accession number U07132) and subcloned into the expression vector pRSETa (Invitrogen) under the control of an IPTG inducible T7 promoter. The human LXRβ ligand binding domain was expressed in E. coli strain BL21 (DE3). Ten-liter fermentation batches were grown in Rich PO4 media with 0.1 mg/mL Ampicillin at 25° C. for 12 hours, cooled to 9° C. and held at that temperature for 36 hours to a density of OD600=14. At this cell density, 0.25 mM IPTG was added and induction proceeded for 24 hours at 9° C., to a final OD600=16. Cells were harvested by centrifugation (20 minutes, 3500 g, 4° C.), and concentrated cell slurries were stored in PBS at −80° C.
Typically 25-50 g of cell paste is resuspended in 250-500 mL TBS, pH 8.0 (25 mM Tris, 150 mM NaCl). Cells are lysed by passing 3 times through an APV Rannie MINI-lab homogenizer and cell debris is removed by centrifugation (30 minutes, 20,000 g, 4° C.). […] After washing to baseline absorbance with equilibration buffer, the column is washed with approximately one column volume of TBS pH […] containing 95 mM imidazole. […] After washing to baseline absorbance with the dilution buffer the protein is eluted with a gradient from 50-500 mM NaCl. […]

[2] = target: T2, LXRα ligand binding domain (Homo sapiens, UniProt Q13133); assay: Assay for LXRα Activity (HTRF, run as Example 1); assay type: biochemical; settings: 1 μM; over a background reading of 10000 fluorescence units
T2 construct: His tag; made in house
T2 sequence (Q13133 183-447): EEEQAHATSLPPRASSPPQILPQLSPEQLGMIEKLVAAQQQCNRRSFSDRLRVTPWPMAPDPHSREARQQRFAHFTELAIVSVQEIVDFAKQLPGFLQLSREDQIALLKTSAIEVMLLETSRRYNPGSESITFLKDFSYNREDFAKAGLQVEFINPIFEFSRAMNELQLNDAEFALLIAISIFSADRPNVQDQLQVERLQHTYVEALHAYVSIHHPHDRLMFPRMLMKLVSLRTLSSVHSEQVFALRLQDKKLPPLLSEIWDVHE
T2 sequence (Q15788 676-700 partner): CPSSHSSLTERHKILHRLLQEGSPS
Method: The assay for LXRα was run according to the procedures of Example 1, above using his-tagged LXRα ligand binding domain (amino acids 183-447 of Genbank accession number U22662, with the 14th amino acid corrected to A from R).
In this assay 1 μM 24(S),25-epoxycholesterol gave a reading of 20000 fluorescence units over a background reading of 10000 fluorescence units.

SMILES: C[C@H](CC[C@@H]1OC1(C)C)[C@H]1CC[C@H]2[C@@H]3CC=C4C[C@@H](O)CC[C@]4(C)[C@H]3CC[C@]12C [24(S),25-epoxycholesterol]
- reading [1]: 20000 fluorescence units
- reading [2]: 20000 fluorescence units
